Measured values as given in US11826399B2, “Chlorotoxin agents and uses thereof” (Eisai Inc., priority 2017, dated 2023).
Several values for one entry are separate records, joined by “and”; a condition that tells them apart may be missing. Equal entries are not always repeated.

Assay: Plasma and tissue distribution of Cryptophycin Payload and Cryptophycin Metabolite 1 after Cryptophycin Payload alone or with CTX in PC-3 xenograft nude mice (LC-MS/MS)
Format: in vivo, mouse
Description: For the present experiment, materials, methods, drugs and model were as described in Example 21. […] Following intravenous administration, whole blood samples were collected at predetermined time points via cardiac puncture (n=3 mice per time point). Blood samples were centrifuged to obtain plasma and subsequently stored at […] or lower pending analysis. Additionally, at each time point, kidney, liver, small intestine, brain, heart, and tumor were harvested by removing entire specimen from surrounding tissues (only a portion of liver and small intestine were removed). After removal, tissues were rinsed with normal saline solution (contents of small intestine were emptied) and blotted dry with clean adsorptive tissue. Once dried, the specimens were weighed and stored at −20° C. or lower pending analysis. […] Pharmacokinetic (PK) parameters were calculated. Mean plasma and tissue concentrations were used to calculate mean PK parameters. Skin and skeletal muscle which were not assessed due to difficulty of homogenization.
Vehicle for single dose group was 10% ethanol, 5% Tween 80, 85% saline. Vehicle for combination treatment was 5% ethanol, 2.5% Tween 80, 92.5% saline.

[1] = Brain, Payload 0.4 mg/kg + CTX 16 mg/kg IV
[2] = Brain, Payload 0.4 mg/kg IV alone
[3] = Heart, Payload 0.4 mg/kg + CTX 16 mg/kg IV
[4] = Heart, Payload 0.4 mg/kg IV alone
[5] = Kidney, Payload 0.4 mg/kg + CTX 16 mg/kg IV
[6] = Kidney, Payload 0.4 mg/kg IV alone
[7] = Liver, Payload 0.4 mg/kg + CTX 16 mg/kg IV
[8] = Liver, Payload 0.4 mg/kg IV alone
[9] = Payload 0.4 mg/kg + CTX 16 mg/kg IV, 0.083 h
[10] = Payload 0.4 mg/kg + CTX 16 mg/kg IV, 0.5 h
[11] = Payload 0.4 mg/kg + CTX 16 mg/kg IV, 1 h
[12] = Payload 0.4 mg/kg + CTX 16 mg/kg IV, 2 h
[13] = Payload 0.4 mg/kg + CTX 16 mg/kg IV, 6 h
[14] = Payload 0.4 mg/kg + CTX 16 mg/kg IV, 24 h
[15] = Payload 0.4 mg/kg IV alone, 0.083 h
[16] = Payload 0.4 mg/kg IV alone, 0.5 h
[17] = Payload 0.4 mg/kg IV alone, 1 h
[18] = Payload 0.4 mg/kg IV alone, 2 h
[19] = Payload 0.4 mg/kg IV alone, 6 h
[20] = Payload 0.4 mg/kg IV alone, 24 h
[21] = Plasma, Payload 0.4 mg/kg + CTX 16 mg/kg IV
[22] = Plasma, Payload 0.4 mg/kg IV alone
[23] = Small Intestine, Payload 0.4 mg/kg + CTX 16 mg/kg IV
[24] = Small Intestine, Payload 0.4 mg/kg IV alone
[25] = Tumor, Payload 0.4 mg/kg + CTX 16 mg/kg IV
[26] = Tumor, Payload 0.4 mg/kg IV alone

## COc1ccc(CC2NC(=O)C=CCC(C(C)C3OC3c3ccc(CN4CCN(CCC(C)(C)SC)CC4)cc3)OC(=O)C(CC(C)C)NC(=O)C(C)(C)CNC2=O)cc1Cl (stereo not drawn) [Cryptophycin Metabolite 1]
[1]
  AUC(0-t) of Cryptophycin Metabolite 1: 5.38 ng·h/g
  tmax of Cryptophycin Metabolite 1: 2.00 h
[2]
  AUC(0-t) of Cryptophycin Metabolite 1: 4.42 ng·h/g
  tmax of Cryptophycin Metabolite 1: 0.08 h
[3]
  AUC(0-inf) of Cryptophycin Metabolite 1: 620 ng·h/g
  AUC(0-t) of Cryptophycin Metabolite 1: 616 ng·h/g
  t1/2 of Cryptophycin Metabolite 1: 3.17 h
  tmax of Cryptophycin Metabolite 1: 0.08 h
[4]
  AUC(0-inf) of Cryptophycin Metabolite 1: 396 ng·h/g
  AUC(0-t) of Cryptophycin Metabolite 1: 394 ng·h/g
  t1/2 of Cryptophycin Metabolite 1: 3.06 h
  tmax of Cryptophycin Metabolite 1: 0.08 h
[5]
  AUC(0-t) of Cryptophycin Metabolite 1: 2720 ng·h/g
  tmax of Cryptophycin Metabolite 1: 2.00 h
[6]
  AUC(0-inf) of Cryptophycin Metabolite 1: 1750 ng·h/g
  AUC(0-t) of Cryptophycin Metabolite 1: 1720 ng·h/g
  t1/2 of Cryptophycin Metabolite 1: 3.99 h
  tmax of Cryptophycin Metabolite 1: 0.50 h
[7]
  AUC(0-inf) of Cryptophycin Metabolite 1: 2930 ng·h/g
  AUC(0-t) of Cryptophycin Metabolite 1: 2900 ng·h/g
  t1/2 of Cryptophycin Metabolite 1: 4.04 h
  tmax of Cryptophycin Metabolite 1: 0.08 h
[8]
  AUC(0-inf) of Cryptophycin Metabolite 1: 1870 ng·h/g
  AUC(0-t) of Cryptophycin Metabolite 1: 1820 ng·h/g
  t1/2 of Cryptophycin Metabolite 1: 4.77 h
  tmax of Cryptophycin Metabolite 1: 0.08 h
[9]
  Concentration of Cryptophycin Metabolite 1, Brain, Mean: 0.622 ng/g
  Concentration of Cryptophycin Metabolite 1, Heart, Mean: 107 ng/g
  Concentration of Cryptophycin Metabolite 1, Kidney, Mean: 115 ng/g
  Concentration of Cryptophycin Metabolite 1, Liver, Mean: 1540 ng/g
  Concentration of Cryptophycin Metabolite 1, Plasma, Mean: 10.8 ng/mL
  Concentration of Cryptophycin Metabolite 1, Small Intestine, Mean: 10.4 ng/g
  Concentration of Cryptophycin Metabolite 1, Tumor, Mean: 2.61 ng/g
[10]
  Concentration of Cryptophycin Metabolite 1, Brain, Mean: 0.641 ng/g
  Concentration of Cryptophycin Metabolite 1, Heart, Mean: 94.9 ng/g
  Concentration of Cryptophycin Metabolite 1, Kidney, Mean: 252 ng/g
  Concentration of Cryptophycin Metabolite 1, Liver, Mean: 1000 ng/g
  Concentration of Cryptophycin Metabolite 1, Plasma, Mean: 8.10 ng/mL
  Concentration of Cryptophycin Metabolite 1, Small Intestine, Mean: 18.5 ng/g
  Concentration of Cryptophycin Metabolite 1, Tumor, Mean: 2.69 ng/g
[11]
  Concentration of Cryptophycin Metabolite 1, Brain, Mean: 1.07 ng/g
  Concentration of Cryptophycin Metabolite 1, Heart, Mean: 77.1 ng/g
  Concentration of Cryptophycin Metabolite 1, Kidney, Mean: 285 ng/g
  Concentration of Cryptophycin Metabolite 1, Liver, Mean: 1370 ng/g
  Concentration of Cryptophycin Metabolite 1, Plasma, Mean: 12.4 ng/mL
  Concentration of Cryptophycin Metabolite 1, Small Intestine, Mean: 26.9 ng/g
  Concentration of Cryptophycin Metabolite 1, Tumor, Mean: 3.90 ng/g
[12]
  Concentration of Cryptophycin Metabolite 1, Brain, Mean: 1.09 ng/g
  Concentration of Cryptophycin Metabolite 1, Heart, Mean: 87.9 ng/g
  Concentration of Cryptophycin Metabolite 1, Kidney, Mean: 370 ng/g
  Concentration of Cryptophycin Metabolite 1, Liver, Mean: 335 ng/g
  Concentration of Cryptophycin Metabolite 1, Plasma, Mean: 5.12 ng/mL
  Concentration of Cryptophycin Metabolite 1, Small Intestine, Mean: 21.8 ng/g
  Concentration of Cryptophycin Metabolite 1, Tumor, Mean: 9.66 ng/g
[13]
  Concentration of Cryptophycin Metabolite 1, Brain, Mean: 0.725 ng/g
  Concentration of Cryptophycin Metabolite 1, Heart, Mean: 43.7 ng/g
  Concentration of Cryptophycin Metabolite 1, Kidney, Mean: 191 ng/g
  Concentration of Cryptophycin Metabolite 1, Liver, Mean: 53.6 ng/g
  Concentration of Cryptophycin Metabolite 1, Plasma, Mean: 2.15 ng/mL
  Concentration of Cryptophycin Metabolite 1, Small Intestine, Mean: 14.8 ng/g
  Concentration of Cryptophycin Metabolite 1, Tumor, Mean: 12.2 ng/g
[14]
  Concentration of Cryptophycin Metabolite 1, Brain, Mean: BLQ
  Concentration of Cryptophycin Metabolite 1, Heart, Mean: 0.763 ng/g
  Concentration of Cryptophycin Metabolite 1, Kidney, Mean: 9.65 ng/g
  Concentration of Cryptophycin Metabolite 1, Liver, Mean: 5.15 ng/g
  Concentration of Cryptophycin Metabolite 1, Plasma, Mean: 0.384 ng/mL
  Concentration of Cryptophycin Metabolite 1, Small Intestine, Mean: 4.02 ng/g
  Concentration of Cryptophycin Metabolite 1, Tumor, Mean: 10.8 ng/g
[15]
  Concentration of Cryptophycin Metabolite 1, Brain, Mean: 1.46 ng/g
  Concentration of Cryptophycin Metabolite 1, Heart, Mean: 87.1 ng/g
  Concentration of Cryptophycin Metabolite 1, Kidney, Mean: 225 ng/g
  Concentration of Cryptophycin Metabolite 1, Liver, Mean: 2710 ng/g
  Concentration of Cryptophycin Metabolite 1, Plasma, Mean: 23.6 ng/mL
  Concentration of Cryptophycin Metabolite 1, Small Intestine, Mean: 22.2 ng/g
  Concentration of Cryptophycin Metabolite 1, Tumor, Mean: 2.36 ng/g
[16]
  Concentration of Cryptophycin Metabolite 1, Brain, Mean: 0.895 ng/g
  Concentration of Cryptophycin Metabolite 1, Heart, Mean: 80.2 ng/g
  Concentration of Cryptophycin Metabolite 1, Kidney, Mean: 361 ng/g
  Concentration of Cryptophycin Metabolite 1, Liver, Mean: 499 ng/g
  Concentration of Cryptophycin Metabolite 1, Plasma, Mean: 8.37 ng/mL
  Concentration of Cryptophycin Metabolite 1, Small Intestine, Mean: 29.7 ng/g
  Concentration of Cryptophycin Metabolite 1, Tumor, Mean: 3.27 ng/g
[17]
  Concentration of Cryptophycin Metabolite 1, Brain, Mean: 0.983 ng/g
  Concentration of Cryptophycin Metabolite 1, Heart, Mean: 70.3 ng/g
  Concentration of Cryptophycin Metabolite 1, Kidney, Mean: 294 ng/g
  Concentration of Cryptophycin Metabolite 1, Liver, Mean: 310 ng/g
  Concentration of Cryptophycin Metabolite 1, Plasma, Mean: 6.46 ng/mL
  Concentration of Cryptophycin Metabolite 1, Small Intestine, Mean: 24.3 ng/g
  Concentration of Cryptophycin Metabolite 1, Tumor, Mean: 3.41 ng/g
[18]
  Concentration of Cryptophycin Metabolite 1, Brain, Mean: 0.887 ng/g
  Concentration of Cryptophycin Metabolite 1, Heart, Mean: 52.8 ng/g
  Concentration of Cryptophycin Metabolite 1, Kidney, Mean: 249 ng/g
  Concentration of Cryptophycin Metabolite 1, Liver, Mean: 194 ng/g
  Concentration of Cryptophycin Metabolite 1, Plasma, Mean: 4.32 ng/mL
  Concentration of Cryptophycin Metabolite 1, Small Intestine, Mean: 23.1 ng/g
  Concentration of Cryptophycin Metabolite 1, Tumor, Mean: 4.01 ng/g
[19]
  Concentration of Cryptophycin Metabolite 1, Brain, Mean: 0.412 ng/g
  Concentration of Cryptophycin Metabolite 1, Heart, Mean: 25.4 ng/g
  Concentration of Cryptophycin Metabolite 1, Kidney, Mean: 91.2 ng/g
  Concentration of Cryptophycin Metabolite 1, Liver, Mean: 37.2 ng/g
  Concentration of Cryptophycin Metabolite 1, Plasma, Mean: 1.86 ng/mL
  Concentration of Cryptophycin Metabolite 1, Small Intestine, Mean: 26.1 ng/g
  Concentration of Cryptophycin Metabolite 1, Tumor, Mean: 5.33 ng/g
[20]
  Concentration of Cryptophycin Metabolite 1, Brain, Mean: BLQ
  Concentration of Cryptophycin Metabolite 1, Heart, Mean: 0.387 ng/g
  Concentration of Cryptophycin Metabolite 1, Kidney, Mean: 4.88 ng/g
  Concentration of Cryptophycin Metabolite 1, Liver, Mean: 7.89 ng/g
  Concentration of Cryptophycin Metabolite 1, Plasma, Mean: 0.141 ng/mL
  Concentration of Cryptophycin Metabolite 1, Small Intestine, Mean: 1.50 ng/g
  Concentration of Cryptophycin Metabolite 1, Tumor, Mean: 4.91 ng/g
[21]
  AUC(0-inf) of Cryptophycin Metabolite 1: 53.2 ng·h/mL
  AUC(0-t) of Cryptophycin Metabolite 1: 49.9 ng·h/mL
  Cmax of Cryptophycin Metabolite 1: 12.4 ng/mL
  t1/2 of Cryptophycin Metabolite 1: 6.24 h
  tmax of Cryptophycin Metabolite 1: 1.0 h
[22]
  AUC(0-inf) of Cryptophycin Metabolite 1: 40.7 ng·h/mL
  AUC(0-t) of Cryptophycin Metabolite 1: 39.8 ng·h/mL
  Cmax of Cryptophycin Metabolite 1: 23.6 ng/mL
  t1/2 of Cryptophycin Metabolite 1: 4.57 h
  tmax of Cryptophycin Metabolite 1: 0.083 h and 0.08 h
[23]
  AUC(0-inf) of Cryptophycin Metabolite 1: 316 ng·h/g
  AUC(0-t) of Cryptophycin Metabolite 1: 263 ng·h/g
  t1/2 of Cryptophycin Metabolite 1: 9.18 h
  tmax of Cryptophycin Metabolite 1: 1.00 h
[24]
  AUC(0-inf) of Cryptophycin Metabolite 1: 314 ng·h/g
  AUC(0-t) of Cryptophycin Metabolite 1: 302 ng·h/g
  t1/2 of Cryptophycin Metabolite 1: 5.15 h
  tmax of Cryptophycin Metabolite 1: 0.50 h
[25]
  AUC(0-t) of Cryptophycin Metabolite 1: 259 ng·h/g
  tmax of Cryptophycin Metabolite 1: 6.00 h
[26]
  AUC(0-t) of Cryptophycin Metabolite 1: 117 ng·h/g
  tmax of Cryptophycin Metabolite 1: 6.00 h
